Columns and labels:
Assay in all cases: relative viability (nuclei count vs DMSO), 5 days (fraction); higher = more cells survive
[1] = compound: CCCS(=O)(=O)Nc1ccc(F)c(C(=O)c2c[nH]c3ncc(-c4ccc(Cl)cc4)cc23)c1F [Vemurafenib] + CC(=O)c1c(C)c2cnc(Nc3ccc(N4CCNCC4)cn3)nc2n(C2CCCC2)c1=O [Palbociclib] (partner 0.5 µM)
How it was run: (§1)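 A single step with final 0.05% Triton X-100, 1% formaldehyde and 1 ug/ml Hoechst fixed the cells and stained nuclei 5 days after treatment. Lung cancer cell lines in 1536-well plates had been treated by pin tool the day after seeding with one drug alone or a fixed anchor-drug dose plus five library-drug doses (not always all listed) in √10 steps, and nuclei were counted on 4× images. Relative viability is the ratio of nuclei in treated wells to nuclei in vehicle wells, taken as the median of duplicate plates.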

Vemurafenib + Navitoclax = compound: CCCS(=O)(=O)Nc1ccc(F)c(C(=O)c2c[nH]c3ncc(-c4ccc(Cl)cc4)cc23)c1F [Vemurafenib] + CC1(C)CCC(c2ccc(Cl)cc2)=C(CN2CCN(c3ccc(C(=O)NS(=O)(=O)c4ccc(N[C@H](CCN5CCOCC5)CSc5ccccc5)c(S(=O)(=O)C(F)(F)F)c4)cc3)CC2)C1 [Navitoclax] (partner 0.5 µM)
How it was run: as §1

OSI-027 + Bortezomib = compound: COc1cccc2cc(-c3nc([C@H]4CC[C@H](C(=O)O)CC4)n4ncnc(N)c34)[nH]c12 [OSI-027] + CC(C)C[C@H](NC(=O)[C@H](Cc1ccccc1)NC(=O)c1cnccn1)B(O)O [Bortezomib] (partner 0.002 µM)
How it was run: as §1

OSI-027 + Decitabine = compound: COc1cccc2cc(-c3nc([C@H]4CC[C@H](C(=O)O)CC4)n4ncnc(N)c34)[nH]c12 [OSI-027] + Nc1ncn([C@H]2C[C@H](O)[C@@H](CO)O2)c(=O)n1 [Decitabine] (partner 2 µM)
How it was run: as §1

Cell Line | relative viability ([1]; first compound 0.03162 µM) | relative viability ([1]; first compound 0.1 µM) | relative viability ([1]; first compound 0.3162 µM) | relative viability ([1]; first compound 1 µM) | relative viability (Vemurafenib + Navitoclax; first compound 0.03162 µM) | relative viability (Vemurafenib + Navitoclax; first compound 0.1 µM) | relative viability (Vemurafenib + Navitoclax; first compound 0.3162 µM) | relative viability (Vemurafenib + Navitoclax; first compound 1 µM) | relative viability (OSI-027 + Bortezomib; first compound 0.01 µM) | relative viability (OSI-027 + Bortezomib; first compound 0.03162 µM) | relative viability (OSI-027 + Bortezomib; first compound 0.1 µM) | relative viability (OSI-027 + Bortezomib; first compound 0.3162 µM) | relative viability (OSI-027 + Bortezomib; first compound 1 µM) | relative viability (OSI-027 + Decitabine; first compound 0.01 µM) | relative viability (OSI-027 + Decitabine; first compound 0.03162 µM) | relative viability (OSI-027 + Decitabine; first compound 0.1 µM) | relative viability (OSI-027 + Decitabine; first compound 0.3162 µM) | relative viability (OSI-027 + Decitabine; first compound 1 µM)
NCI-H1651 | 0.511 | 0.463 | 0.488 | 0.53 | 1.02 | 0.976 | 1.07 | 0.93 | 0.929 | 0.954 | 0.884 | 0.929 | 0.737 | 0.629 | 0.553 | 0.576 | 0.561 | 0.515
NCI-H1666 | 0.579 | 0.699 | 0.665 | 0.641 | 0.932 |  | 1.06 | 0.972 | 0.707 | 0.9 | 0.688 | 0.425 | 0.372 | 0.719 | 0.7 | 0.741 | 0.624 | 0.555
NCI-H1734 | 0.344 | 0.335 | 0.343 | 0.317 | 0.787 | 0.77 | 0.784 | 0.823 | 0.958 | 0.809 | 0.852 | 0.834 | 0.47 | 0.559 | 0.595 | 0.503 | 0.265 | 0.417
NCI-H1755 | 0.459 | 0.43 | 0.431 | 0.434 | 0.937 | 0.953 | 1.05 | 0.998 | 1 | 0.96 | 0.983 | 0.89 | 0.556 | 0.75 | 0.716 | 0.702 | 0.654 | 0.503
